{
  "source": "paper PMC2954226",
  "about": "“Structure of the γ-D-glutamyl-L-diamino acid endopeptidase YkfC from Bacillus cereus in complex with L-Ala-γ-D-Glu: insights into substrate recognition by NlpC/P60 cysteine peptidases” (Acta Crystallographica Section F: Structural Biology and …, 2010)",
  "molecular_target": "T1, BcYkfC (Bacillus cereus, UniProt Q736M3)",
  "T1 construct": "gene ykfC; signal peptide (residues 1-23) removed; N-terminal His tag cut by TEV leaving Gly0; selenomethionine protein from E. coli; SH3b1 (29-129), SH3b2 (130-207) and NlpC/P60 (208-333) domains; model 29-333; monomer",
  "T1 sequence (Q736M3 24-333)": "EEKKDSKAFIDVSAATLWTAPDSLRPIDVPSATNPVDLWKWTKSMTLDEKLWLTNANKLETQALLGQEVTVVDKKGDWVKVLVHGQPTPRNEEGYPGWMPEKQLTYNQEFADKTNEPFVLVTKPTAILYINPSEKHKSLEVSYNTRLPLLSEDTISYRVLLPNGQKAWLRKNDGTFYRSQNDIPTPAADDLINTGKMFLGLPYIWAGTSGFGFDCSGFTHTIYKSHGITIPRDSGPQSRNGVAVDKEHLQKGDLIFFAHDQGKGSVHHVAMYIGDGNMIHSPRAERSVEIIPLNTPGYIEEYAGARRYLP",
  "assay": "X-ray crystal structure, […] Å (SeMet MAD)",
  "type": "binding",
  "details": "ligand co-purified, most likely from E. coli expression host; S2-S1 site; catalytic Cys238 oxidized (OCS), enzyme inactive in the crystal; crystallized at pH 4.2, 277 K",
  "note": "Non-standard residues stand in square brackets, D forms with d. Residues, ends and D or L forms follow the SMILES beside them.",
  "data": [
    {"compound": "C[C@H](N)C(=O)N[C@H](CCC(=O)O)C(=O)O", "note": "[L-Ala-γ-D-Glu] (H-Ala-[dE]-OH)", "values": [
      {"measurement": "X-ray crystal structure, 1.79 Å (SeMet MAD)", "value": "The dipeptide L-Ala-γ-D-Glu was identified from well defined electron density in the active site"}
    ]}
  ]
}
